{"source": "patent US8853193B2", "about": "“Thienopyrimidines containing a substituted alkyl group for pharmaceutical compositions” (Boehringer Ingelheim International GmbH, priority 2010, dated 2014)", "note": "Where a name gives a salt, the structure may show the parent alone."}
{"target": "human Mnk2a (Homo sapiens (Human), UniProt Q9HBH9)", "sequence (Q9HBH9 whole entry)": "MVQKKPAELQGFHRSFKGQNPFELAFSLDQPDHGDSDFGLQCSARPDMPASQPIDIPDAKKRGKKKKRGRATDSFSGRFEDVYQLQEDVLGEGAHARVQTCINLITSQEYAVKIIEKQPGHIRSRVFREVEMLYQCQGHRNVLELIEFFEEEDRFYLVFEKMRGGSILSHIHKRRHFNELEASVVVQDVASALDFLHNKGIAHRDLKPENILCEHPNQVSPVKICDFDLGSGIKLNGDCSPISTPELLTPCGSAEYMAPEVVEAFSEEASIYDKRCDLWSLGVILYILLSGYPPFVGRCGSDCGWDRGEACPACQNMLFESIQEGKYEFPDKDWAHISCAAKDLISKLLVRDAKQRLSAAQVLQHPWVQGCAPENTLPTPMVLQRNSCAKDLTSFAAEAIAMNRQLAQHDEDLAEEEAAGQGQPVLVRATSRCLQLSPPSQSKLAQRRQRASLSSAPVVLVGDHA", "test": "Mnk2a in vitro kinase assay (indirect competitive fluorescence polarization)", "type": "biochemical", "conditions": "pre-activated GST-Mnk2a 2.5 nM, 20 μM ATP, 30 μM substrate peptide; read-out: MNK2 IC50", "procedure": "Inhibitory potency of compounds against Mnk1, Mnk2a and other kinases was assessed with assays based on a format known to those skilled in the art as the indirect (competitive) fluorescence polarization. The assay detection system comprises a small fluorophore-labeled phospho-peptide (termed ligand) bound to a phospho-specific antibody. The product generated by the kinase reaction competes with the ligand for antibody binding. Based on the larger molecular volume of the bound ligand, which results in a lower rotation rate in solution, its emitted light has a higher degree of polarization than the one from the free ligand.\nIn brief, the open reading frames of human Mnk1 and Mnk2a were amplified from cDNA using the forward/reverse primer pairs\n(utilized restriction sites underlined), respectively, and cloned into the BamHI and SalI sites of the vector pGEX-4T1 (Amersham, Sweden, cat. no. 27-4580-01). These constructs allow prokaryotic expression of Mnk1 or Mnk2a as fusion protein with a N-terminal glutathione S-transferase (GST) tag, referred to as GST-Mnk1 or GST-Mnk2a. The following expression and purification procedure was identical for GST-Mnk1 and GST-Mnk2a, referring in general to GST-Mnk, when not distinguishing between the two isoforms. Expression of GST-Mnk was in E. coli BL21 (Merck Biosciences, Germany, cat. no. 69449). Cells were grown in LB-Bouillon (Merck, Germany, cat. no. 1.10285) supplemented with 100 μg/ml ampicillin (Sigma, Germany, cat. no. A9518) at 37° C. […] Cells harvested by centrifugation were resuspended in 10 ml lysis buffer (50 mM tris(hydroxymethyl)aminomethane hydrochloride (Tris/HCl, Sigma, Germany, cat. no. T5941) pH 7.5, 300 mM sodium chloride (NaCl, Sigma, Germany, cat. no. S7653), 5% (w/v) glycerol (Sigma, Germany, cat. no. G5516), 3 mM DTT dithiotreitol (DTT, Sigma, Germany, cat. no. D9779)) per gram wet weight cell pellet. Lysates were prepared by disruption of cells with a sonifier and subsequent clearing by centrifugation at 38000 g for 45 min at 4° C.\nThe lysate was applied to a GSTPrep FF 16/10 column (Amersham, Sweden, cat. no. 17-5234-01) equilibrated with lysis buffer. Removal of unbound material was with 3 column volumes (CV) lysis buffer. Elution was with 2 CV of elution buffer (50 mM Tris/HCl pH 7.5, 300 mM NaCl, 5% (w/v) glycerol, 20 mM glutathione (Sigma, Germany, cat. no. G4251)). Peak fractions were pooled and the protein transferred into storage buffer (50 mM Tris/HCl pH 7.5, 200 mM NaCl, 0.1 mM ethylene glycol[…] bis(2-aminoethylether)-N,N,N′,N′-tetraacetic acid (EGTA, Aldrich, Germany, cat. no. 23, 453-2), 1 mM DTT, 10% (w/v) glycerol, 0.5 M sucrose (Sigma, Germany, cat. no. S0389) by gel filtration on a PD10 desalting column (Amersham, Sweden, cat. no. 17-0851-01). Aliquots were shock frozen in liquid nitrogen and stored at −80° C.\nActivation of Mnk1 and Mnk2a was at a concentration of 2.5 μM of either purified GST-Mnk1 or GST-Mnk2a by incubation with 150 nM pre-activated NHis-ERK2 (see ERK2 assay for preparation) and 50 μM adenosine triphosphate (ATP, Sigma, cat. no. A2699) in a buffer comprising 20 mM N-(2-hydroxyethyl)piperazine-N′-(2-ethanesulfonic acid) (HEPES, Fluka, Germany, cat. no 54459)/potassium hydroxide (KOH, Roth, Germany, cat. no 6751.1) pH 7.4, 10 mM magnesium chloride (MgCl2, Sigma, Germany, cat. no. M2670), 0.25 mM DTT, 0.05% (w/v) polyoxyethylene 20 stearylether (Brij 78, Sigma, Germany, cat. no. P4019) (HMDB buffer) for 45 min at 30° C. After the incubation, the preparation was aliquoted into single-use samples, shock frozen in liquid nitrogen, stored at −80° C. and utilized for Mnk1 or Mnk2a kinase assays as detailed below.\nThe serine residue phosphorylated by Mnk kinases is underlined.", "units": {"IC50": "nM"}}
{"compound": "CCNC(=O)C(C)Oc1cc(F)ccc1Nc1ncnc2sc(C(=O)NC)c(C)c12", "note": "(stereo not drawn) [Compound 31-6, 4-(2-(1-(ethylamino)-1-oxo-propan-2-yloxy)-4-fluorophenyl-amino)-N,5-dimethyl-thieno[2,3-d]pyrimidine-6-carbox-amide]", "IC50": 13}
{"compound": "Cc1c(C(=O)NCC(C)O)sc2ncnc(Nc3cccnc3OC(C)C)c12", "note": "(stereo not drawn) [Compound 36-13, N-(2-Hydroxypropyl)-4-(2-isopropoxypyridin-3ylamino)-5-methylthieno[2,3-d]pyrimidine-6-carboxamide]", "IC50": 54}
{"compound": "Cc1c(C(=O)NCCCN(C)C)sc2ncnc(Nc3cccnc3OC(C)CCNS(C)(=O)=O)c12", "note": "(stereo not drawn) [Compound 46, 4-[2-(3-Methanesulfonylamino-1-methyl-propoxy)-pyridin-3-ylamino]-5-methyl-thieno[2,3-d]pyrimidine-6-carboxylic acid (3-dimethylamino-propyl)-amide]", "IC50": 84}
{"compound": "COC(=O)c1sc2ncnc(Nc3ccc(F)cc3OC(C)CCNC(=O)C(C)C)c2c1C", "note": "(stereo not drawn) [Compound 13-3, Methyl 4-(4-fluoro-2-(4-isobutyramido-butan-2-yloxy)-phenylamino)-5-methylthieno[2,3-d]pyrimidine-6-carboxylate]", "IC50": 677}
{"compound": "CCNC(=O)C(C)Oc1cc(F)ccc1Nc1ncnc2sc(C(=O)NCCO)c(C)c12", "note": "(stereo not drawn) [Compound 41]", "IC50": 31}
{"compound": "Cc1c(C(=O)NCCCN(C)C)sc2ncnc(Nc3ccc(F)cc3OCC(F)(F)F)c12", "note": "[Compound 32-16]", "IC50": 66}
{"compound": "COC(=O)c1sc2ncnc(Nc3ccc(F)cc3OC(C)C(=O)NCCN(C)C)c2c1C", "note": "(stereo not drawn) [Compound 62, 4-{2-[1-(2-Dimethylamino-ethylcabamoyl)-ethoxy]-4-fluoro-phenylamino}-5-methyl-thieno[2,3-d]pyrimidine-6-carboxylic acid methyl ester]", "IC50": 267}
{"compound": "Cc1c(C(=O)NCCCN(C)C)sc2ncnc(Nc3cccnc3OC(C)C)c12", "note": "[Compound 36, N-(3-(Dimethylamino)propyl)-4-(2-isopropoxypyridin-3-ylamino)-5-methyl-thieno[2,3-d]pyrimidine-6-carboxamide]", "IC50": 29}
{"compound": "Cc1c(C(=O)NCCO)sc2ncnc(Nc3cccnc3OC(C)CCNS(C)(=O)=O)c12", "note": "(stereo not drawn) [Compound 43, 4-[2-(3-Methanesulfonylamino-1-methyl-propoxy)-pyridin-3-ylamino]-5-methyl-thieno[2,3-d]pyrimidine-6-carboxylic acid (2-hydroxy-ethyl)-amide]", "IC50": 62}
{"compound": "Cc1c(C(=O)NC2CCN(C)CC2)sc2ncnc(Nc3ccc(F)cc3OC(C)CF)c12", "note": "(stereo not drawn) [Compound 32-45]", "IC50": 11}
{"compound": "CCC(CN)Oc1cc(F)ccc1Nc1ncnc2sc(C(=O)OC)c(C)c12", "note": "(stereo not drawn) [Compound 10-2, Methyl 4-(2-(1-aminobutan-2yloxy)-4-fluorophenylamino)-5-methyl-thieno[2,3-d]pyrimidine-6-carboxylate hydrochloride]", "IC50": 229}
{"compound": "Cc1c(C(=O)NCCCN(C)C)sc2ncnc(Nc3cccnc3OCCO)c12", "note": "[Compound 29-4, N-(3-(dimethyl-amino)propyl)-4-(2-(2-hydroxy-ethoxy)pyridin-3-ylamino)-5-methylthieno[2,3-d]pyrimidine-6-carboxamide hydrochloride]", "IC50": 288}
{"compound": "COCC(CF)Oc1cc(F)ccc1Nc1ncnc2sc(C(=O)NCCCN(C)C)c(C)c12", "note": "(stereo not drawn) [Compound 32-24]", "IC50": 25}
{"compound": "Cc1c(C(=O)NC2CCN(C)CC2)sc2ncnc(Nc3cccnc3OC(C)C(F)(F)F)c12", "note": "(stereo not drawn) [Compound 21-4, 5-methyl-N-(1-methylpiperidin-4-yl)-4-(2-(1,1,1-trifluoropropan-2-yloxy)pyridin-3-ylamino)thieno[2,3-d]pyrrimidine-6-carboxamide]", "IC50": 54}
{"compound": "Cc1c(C(=O)O)sc2ncnc(Nc3ccc(F)cc3OC(C)CN)c12", "note": "(stereo not drawn) [Compound 7, 4-(2-(1-Aminopropan-2-yloxy)-4-fluorophenylamino)-5-methyl-thieno[2,3-d]pyrimidine-6-carboxylic acid trifluoroacetate]", "IC50": 14}
{"compound": "COC(=O)c1sc2ncnc(Nc3ccc(F)cc3OC(C)CNC(C)=O)c2c1C", "note": "(stereo not drawn) [Compound 3-4, Methyl 4-(2-(1-acet-amidopropan-2-yloxy)-4-fluorophenylamino)-5-methylthieno[2,3-d]pyrimidine-6-carboxylate]", "IC50": 261}
{"compound": "Cc1c(C(=O)NCCCO)sc2ncnc(Nc3cccnc3OC(C)C)c12", "note": "[Compound 36-11, N-(3-Hydroxypropyl)-4-(2-isopropoxypyridin-3ylamino)-5-methylthieno[2,3-d]pyrimidine-6-carboxamide]", "IC50": 45}
{"compound": "Cc1c(C(=O)NCCCN2CCCC2)sc2ncnc(Nc3ccc(F)cc3OC(CF)CF)c12", "note": "[Compound 23-10, 4-(2-(1,3-difluoro-propan-2-yloxy)-4-fluorophenylamino)-5-methyl-N-(3-(pyrrolidin-1-yl)propyl)thieno[2,3-d]pyrimidine-6-carboxamide]", "IC50": 7}
{"compound": "Cc1c(C(=O)NCCCN(C)C)sc2ncnc(Nc3ccc(F)cc3OC(C)CNS(C)(=O)=O)c12", "note": "(stereo not drawn) [Compound 3-3]", "IC50": 18}
{"compound": "Cc1c(C(=O)NCCO)sc2ncnc(Nc3ccc(F)cc3OC(C)C(=O)NCCN)c12", "note": "(stereo not drawn) [Compound 59, 4-{2-[1-(2-Amino-ethylcarbamoyl)-ethoxy]-4-fluoro-phenylamino}-5-methyl-thieno[2,3-d]pyrimidine-6-carboxylic acid (2-hydroxy-ethyl)amide]", "IC50": 29}
{"compound": "CNC(=O)c1sc2ncnc(Nc3ccc(F)cc3OC(C)CNC(=O)OC(C)(C)C)c2c1C", "note": "(stereo not drawn) [Compound 1-3, tert-Butyl 2-(5-fluoro-2-(5-methyl-6-(methylcarbamoyl)thieno[2,3-d]pyrimidin-4-ylamino)phenoxy)propylcarbamate]", "IC50": 342}
{"compound": "Cc1c(C(=O)NCCC2CCN(C)C2)sc2ncnc(Nc3ccc(F)cc3OC(C)CF)c12", "note": "(stereo not drawn) [Compound 32-43]", "IC50": 12}
{"compound": "Cc1c(C(N)=O)sc2ncnc(Nc3cccnc3OCC3(CC#N)CC3)c12", "note": "[Compound 33-4]", "IC50": 16}
{"compound": "Cc1c(C(N)=O)sc2ncnc(Nc3ccc(F)cc3OCC(F)F)c12", "note": "[Compound 32-17]", "IC50": 16}
{"compound": "COC(=O)c1sc2ncnc(Nc3ccc(F)cc3OC(C)CCN(C)C)c2c1C", "note": "(stereo not drawn) [Compound 14]", "IC50": 1020}
{"compound": "Cc1c(C(N)=O)sc2ncnc(Nc3ccc(F)cc3OC(C)C(C)(C)O)c12", "note": "(stereo not drawn) [Compound 60, 4-[4-Fluoro-2-(2-hydroxy-1,2-dimethyl-propoxy)-phenylamino]-5-methyl-thieno[2,3-d]pyrimidine-6-carboxylic acid amide]", "IC50": 37}
{"compound": "Cc1c(C(=O)O)sc2ncnc(Nc3ccc(F)cc3OCC3CC3(F)F)c12", "note": "(stereo not drawn) [Compound 32-5]", "IC50": 8}
{"compound": "COC(=O)c1sc2ncnc(Nc3ccc(C#N)cc3OC(CF)CF)c2c1C", "note": "[Compound 47, Methyl 4-[4-cyano-2-(2-fluoro-1-fluoromethyl-ethoxy)phenylamino]-5-methyl-thieno[2,3-d]pyrimidine-6-carboxylate]", "IC50": 125}
{"compound": "Cc1c(C(=O)NCCO)sc2ncnc(Nc3ccc(F)cc3OCC(F)F)c12", "note": "[Compound 32-18]", "IC50": 30}
{"compound": "CCNC(=O)C(C)Oc1cc(F)ccc1Nc1ncnc2sc(C(=O)O)c(C)c12", "note": "(stereo not drawn) [Compound 39, 4-[2-(1-Ethylcarbamoyl-ethoxy)-4-fluoro-phenylamino]-5-methyl-thieno[2,3-d]pyrimidine-6-carboxylic acid]", "IC50": 19}
